# pIC50: −log10 of the molar value. The source made the active and inactive calls. No cut-off for these calls is given here.
# Legend:
# [1] = target: T1, Myeloperoxidase (Homo sapiens, UniProt P05164); assay: Inhibition of myeloperoxidase (unknown origin)
# T1 sequence (P05164 whole entry): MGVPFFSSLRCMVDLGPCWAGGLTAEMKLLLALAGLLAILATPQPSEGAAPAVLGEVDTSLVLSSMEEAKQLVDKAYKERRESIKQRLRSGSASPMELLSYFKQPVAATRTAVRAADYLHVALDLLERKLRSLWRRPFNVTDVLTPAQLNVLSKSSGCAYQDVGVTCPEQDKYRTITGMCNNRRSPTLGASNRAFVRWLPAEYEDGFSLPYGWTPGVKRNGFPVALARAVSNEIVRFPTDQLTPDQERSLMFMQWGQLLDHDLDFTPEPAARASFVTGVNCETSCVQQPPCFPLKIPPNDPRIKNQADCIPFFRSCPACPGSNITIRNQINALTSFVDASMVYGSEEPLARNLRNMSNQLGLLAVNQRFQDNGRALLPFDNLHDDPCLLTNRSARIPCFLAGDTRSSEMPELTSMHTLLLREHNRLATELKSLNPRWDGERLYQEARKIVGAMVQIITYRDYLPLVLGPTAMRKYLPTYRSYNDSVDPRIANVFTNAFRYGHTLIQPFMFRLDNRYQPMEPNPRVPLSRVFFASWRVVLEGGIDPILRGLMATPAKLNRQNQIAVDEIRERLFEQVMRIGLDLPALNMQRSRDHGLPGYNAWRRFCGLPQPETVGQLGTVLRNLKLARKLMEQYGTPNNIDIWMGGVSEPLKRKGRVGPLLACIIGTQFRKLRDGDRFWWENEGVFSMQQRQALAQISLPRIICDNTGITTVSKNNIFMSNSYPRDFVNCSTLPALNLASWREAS
# [2] = Plasma clearance in mouse at 1 mg/kg, iv; type: ADME, organism-based
# [3] = Elimination half life in mouse at 0.5 mg/kg, iv; type: ADME, organism-based; settings: in vivo, read-out: beta t1/2 (converted)
# [4] = Plasma protein binding in human; type: ADME, cell-free; settings: read-out: PPB (converted)
# [5] = target: Cytochrome P450 2D6 (Homo sapiens, UniProt P10635); assay: Inhibition of CYP2D6 (unknown origin); type: ADME
# Sequence of Cytochrome P450 2D6 (P10635 whole entry): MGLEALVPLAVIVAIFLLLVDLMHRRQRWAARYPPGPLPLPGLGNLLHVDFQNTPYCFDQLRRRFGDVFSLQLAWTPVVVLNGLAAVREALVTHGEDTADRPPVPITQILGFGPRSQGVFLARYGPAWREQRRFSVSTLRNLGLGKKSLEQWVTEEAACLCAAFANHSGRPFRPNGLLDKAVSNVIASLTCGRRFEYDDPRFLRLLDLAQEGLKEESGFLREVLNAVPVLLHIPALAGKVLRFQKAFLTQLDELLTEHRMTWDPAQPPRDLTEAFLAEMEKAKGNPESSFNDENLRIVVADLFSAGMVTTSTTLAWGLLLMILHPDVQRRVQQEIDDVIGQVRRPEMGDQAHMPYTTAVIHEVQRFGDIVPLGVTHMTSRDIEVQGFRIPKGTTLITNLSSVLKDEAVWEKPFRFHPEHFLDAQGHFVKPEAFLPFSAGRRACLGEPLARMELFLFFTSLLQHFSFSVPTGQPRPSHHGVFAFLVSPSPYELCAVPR
# [6] = Cmax in mouse at 10 mg/kg, po; type: ADME, organism-based; design: dose 10 mg/kg, route oral; settings: in vivo
# [7] = Solubility of the compound at pH 6.8; type: physicochemical; settings: buffer
# [8] = target: T1, Myeloperoxidase; assay: Inhibition of human plasma myeloperoxidase
# [9] = target: Cytochrome P450 3A4 (Homo sapiens, UniProt P08684); assay: Inhibition of CYP3A4 (unknown origin); type: ADME
# Sequence of Cytochrome P450 3A4 (P08684 whole entry): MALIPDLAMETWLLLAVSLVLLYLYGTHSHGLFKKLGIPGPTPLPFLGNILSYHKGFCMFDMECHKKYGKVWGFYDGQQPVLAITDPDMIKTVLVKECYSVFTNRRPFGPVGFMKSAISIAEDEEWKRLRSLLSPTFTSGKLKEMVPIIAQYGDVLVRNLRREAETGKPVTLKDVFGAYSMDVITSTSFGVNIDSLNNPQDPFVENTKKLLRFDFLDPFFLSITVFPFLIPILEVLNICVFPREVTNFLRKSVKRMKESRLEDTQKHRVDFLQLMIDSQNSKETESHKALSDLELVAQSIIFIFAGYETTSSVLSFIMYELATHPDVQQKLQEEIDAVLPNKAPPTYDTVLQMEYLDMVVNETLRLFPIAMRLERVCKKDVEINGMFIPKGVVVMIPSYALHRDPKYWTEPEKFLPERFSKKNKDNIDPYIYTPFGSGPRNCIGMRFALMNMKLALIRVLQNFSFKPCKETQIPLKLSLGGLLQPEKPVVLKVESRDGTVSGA
# [10] = target: Voltage-gated inwardly rectifying potassium channel KCNH2 (Homo sapiens, UniProt Q12809); assay: Inhibition of human ERG
# Sequence of Voltage-gated inwardly rectifying potassium channel KCNH2 (Q12809 whole entry): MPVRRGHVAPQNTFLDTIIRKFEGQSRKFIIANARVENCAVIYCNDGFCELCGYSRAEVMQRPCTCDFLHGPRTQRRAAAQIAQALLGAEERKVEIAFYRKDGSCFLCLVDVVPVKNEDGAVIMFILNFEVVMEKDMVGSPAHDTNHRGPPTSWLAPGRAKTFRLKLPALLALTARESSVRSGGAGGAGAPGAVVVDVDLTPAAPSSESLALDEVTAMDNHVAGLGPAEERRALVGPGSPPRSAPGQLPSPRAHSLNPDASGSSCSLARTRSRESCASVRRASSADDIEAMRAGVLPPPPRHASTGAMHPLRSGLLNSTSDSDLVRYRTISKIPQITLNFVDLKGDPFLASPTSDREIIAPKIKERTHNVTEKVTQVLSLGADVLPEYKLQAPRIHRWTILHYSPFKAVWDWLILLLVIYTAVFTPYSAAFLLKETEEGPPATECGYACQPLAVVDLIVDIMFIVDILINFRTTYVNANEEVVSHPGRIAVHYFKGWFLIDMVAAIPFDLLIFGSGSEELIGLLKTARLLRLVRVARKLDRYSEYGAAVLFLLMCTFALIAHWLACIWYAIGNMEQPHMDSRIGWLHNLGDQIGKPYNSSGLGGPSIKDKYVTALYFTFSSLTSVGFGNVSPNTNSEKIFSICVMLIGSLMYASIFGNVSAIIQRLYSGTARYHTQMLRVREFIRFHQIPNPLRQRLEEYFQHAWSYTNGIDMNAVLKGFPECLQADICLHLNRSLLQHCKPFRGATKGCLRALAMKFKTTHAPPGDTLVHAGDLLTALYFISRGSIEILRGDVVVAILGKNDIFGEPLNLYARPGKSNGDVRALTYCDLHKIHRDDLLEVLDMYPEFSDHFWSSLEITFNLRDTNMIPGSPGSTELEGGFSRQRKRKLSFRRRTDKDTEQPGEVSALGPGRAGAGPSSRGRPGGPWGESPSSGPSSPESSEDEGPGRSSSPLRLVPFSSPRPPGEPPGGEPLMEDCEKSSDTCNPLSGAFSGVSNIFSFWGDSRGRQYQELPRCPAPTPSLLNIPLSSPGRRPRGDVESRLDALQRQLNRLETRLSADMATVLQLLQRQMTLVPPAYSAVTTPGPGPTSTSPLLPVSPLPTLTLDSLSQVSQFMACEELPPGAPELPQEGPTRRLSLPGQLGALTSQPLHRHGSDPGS
# [11] = target: T2, Thyroid peroxidase (Homo sapiens, UniProt P07202); assay: Inhibition of thyroid peroxidase (unknown origin)
# T2 sequence (P07202 whole entry): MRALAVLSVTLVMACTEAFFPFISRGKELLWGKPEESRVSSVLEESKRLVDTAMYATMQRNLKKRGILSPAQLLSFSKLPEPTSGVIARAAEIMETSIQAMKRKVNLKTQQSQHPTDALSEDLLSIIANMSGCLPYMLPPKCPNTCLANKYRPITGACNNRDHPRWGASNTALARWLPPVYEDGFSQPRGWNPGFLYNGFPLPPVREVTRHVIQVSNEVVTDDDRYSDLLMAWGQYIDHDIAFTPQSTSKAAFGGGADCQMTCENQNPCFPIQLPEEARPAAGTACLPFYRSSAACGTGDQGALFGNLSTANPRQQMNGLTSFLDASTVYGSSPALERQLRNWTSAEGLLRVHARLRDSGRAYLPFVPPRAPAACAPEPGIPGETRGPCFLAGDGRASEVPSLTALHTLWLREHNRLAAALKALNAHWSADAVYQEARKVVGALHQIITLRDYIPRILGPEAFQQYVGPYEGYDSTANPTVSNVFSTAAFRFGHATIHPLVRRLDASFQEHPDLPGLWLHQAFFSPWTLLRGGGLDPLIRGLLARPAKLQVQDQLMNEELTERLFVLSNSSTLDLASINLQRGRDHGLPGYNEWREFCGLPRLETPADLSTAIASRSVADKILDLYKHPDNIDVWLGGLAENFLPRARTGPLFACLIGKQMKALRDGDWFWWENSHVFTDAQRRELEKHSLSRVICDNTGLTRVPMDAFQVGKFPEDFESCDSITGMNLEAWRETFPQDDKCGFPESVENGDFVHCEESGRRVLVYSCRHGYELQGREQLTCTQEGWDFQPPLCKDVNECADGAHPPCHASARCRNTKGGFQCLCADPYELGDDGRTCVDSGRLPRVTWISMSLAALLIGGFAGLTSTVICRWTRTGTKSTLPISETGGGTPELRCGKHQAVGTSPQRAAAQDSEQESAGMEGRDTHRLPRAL
# [12] = target: T3, Myeloperoxidase (Homo sapiens) (UniProt P05164); assay: Inhibition of myeloperoxidase (unknown origin) assessed as partition ratio by Amplex red based fluorescence assay
# T3 sequence (whole entry): T1 sequence (P05164 whole entry)
# [13] = AUCinfinity in mouse at 10 mg/kg, po; type: ADME, organism-based; design: dose 10 mg/kg, route oral, time infinity; settings: in vivo
# [14] = Oral bioavailability in mouse at 10 mg/kg; type: ADME, organism-based; settings: in vivo
# [15] = Plasma protein binding in mouse at 0.5 mg/kg, iv or 10 mg/kg, po; type: ADME, organism-based; settings: read-out: PPB (converted)
# [16] = target: T3, Myeloperoxidase (Homo sapiens); assay: Inhibition of myeloperoxidase (unknown origin) assessed as ratio of Kinact to Ki
# [17] = Volume of distribution at steady state in mouse at 0.5 mg/kg, iv; type: ADME, organism-based; settings: in vivo, read-out: Vdss
# [18] = test system: Armoracia rusticana; assay: Irreversible inhibition of horseradish peroxidase at 1000 fold dilution
# [19] = target: T4, Thyroid peroxidase (Homo sapiens) (UniProt P07202); assay: Irreversible inhibition of thyroid peroxidase (unknown origin) at 1000 fold dilution
# T4 sequence (whole entry): T2 sequence (P07202 whole entry)
# [20] = target: T3, Myeloperoxidase (Homo sapiens); assay: Irreversible inhibition of myeloperoxidase (unknown origin) at 1000 fold dilution
# [21] = target: T3, Myeloperoxidase (Homo sapiens); assay: Irreversible inhibition of human myeloperoxidase assessed as residual activity using H2O2 as substrate at 200 fold dilution and measured after 72 hrs by dialysis method
# [22] = Volume of distribution at steady state in mouse at 1 mg/kg, iv; type: ADME, organism-based; settings: in vivo, read-out: Vdss
# [23] = Plasma protein binding in mouse at 1mg/kg, iv or 10 mg/kg, po; type: ADME, organism-based; settings: read-out: PPB (converted)
# [24] = test system: Mus musculus; assay: Antiinflammatory activity against mouse model of thioglycolate/zymosan A induced peritonitis assessed as decrease in myeloperoxidase activity at 90 mg/kg, po pretreated for 4 hrs followed by zymosan A stimulation by ELISA; type: functional; design: scale not given: the % may be the effect or the level left
# [25] = Unbound Cmax in mouse at 10 mg/kg, po; type: ADME, organism-based; settings: in vivo
# [26] = Elimination half life in mouse at 1 mg/kg, iv; type: ADME, organism-based; settings: in vivo, read-out: beta t1/2 (converted)
# [27] = target: T3, Myeloperoxidase (Homo sapiens); assay: Irreversible inhibition of human myeloperoxidase using H2O2 as substrate at 200 fold dilution and measured after 72 hrs by dialysis method
SMILES,pIC50 [1],IC [5] [µM],solubility [7] [µM],pIC50 [8],IC [9] [µM],pIC50 [11],Ratio [12],Ratio [16] [M⁻¹ s⁻¹],pIC50 [10],also measured
N[C@@H]1CC[C@@H](n2cc(-c3ccc4cc[nH]c4c3)c(C(F)(F)F)n2)C1,7.15,> 50,587,6.77,34,< 4.52,3.1,230000,4.77,clearance [2]: 16.1 mL/min/kg; half-life [3]: 4.5 h; fraction unbound [4]: 0.034; Cmax [6]: 1990 nM; AUC(0-inf) [13]: 22.9 µM·h; bioavailability [14]: 40%; fraction unbound [15]: 0.027; Vd [17]: 2.1 L/kg
NCCCCn1cc(-c2ccc3cc[nH]c3c2)c(C(F)(F)F)n1,6.48,43,73,6.05,> 50,< 4.52,42,61000,5.72,
NC[C@H]1C[C@H](n2cc(-c3ccc4cc[nH]c4c3)c(C(F)(F)F)n2)C1,6.77,,,,,< 4.52,6.7,,,
O=C(O)CCn1cc(-c2ccc3cc[nH]c3c2)c(C(F)(F)F)n1,5.28,,,,,,> 200,,,
NC(=O)CCn1cc(-c2ccc3cc[nH]c3c2)c(C(F)(F)F)n1,5.38,,,,,< 4.52,> 200,,,
FC(F)(F)c1nn(-c2ccc(Cc3nc[nH]n3)cc2)cc1-c1ccc2cc[nH]c2c1,6.60,0.5,11,4.64,6.9,5.23,12,106000,< 4.52,

# More lines, in order of rising pIC50 [1], values ahead:
pIC50 [1],IC [5] [µM],solubility [7] [µM],pIC50 [8],IC [9] [µM],pIC50 [11],Ratio [12],Ratio [16] [M⁻¹ s⁻¹],SMILES,pIC50 [10],also measured
5.70,,,,,< 4.52,> 200,,NC(=O)Cn1cc(-c2ccc3cc[nH]c3c2)c(C(F)(F)F)n1,,
6.38,21,21,4.74,17,< 4.52,17,122000,N[C@@H](c1ccc(-n2cc(-c3ccc4cc[nH]c4c3)c(C(F)(F)F)n2)cc1)C(F)(F)F,< 4.52,
6.66,> 50,46,,> 50,4.52,141,23000,Nc1ncnc2c1c(-c1ccc3cc[nH]c3c1)cn2-c1ccc(OCCNCCO)cc1,5.55,inhibition [18]: inactive; inhibition [19]: inactive; inhibition [20]: Active; Activity [21]: > 95%
6.92,21,21,5.59,17,5.28,3.7,210000,CN(C)Cc1ccc(-n2cc(-c3ccc4cc[nH]c4c3)c3c(Cl)ccnc32)cc1,5.77,clearance [2]: 64.7 mL/min/kg; Cmax [6]: 502 nM; Vd [22]: 9.8 L/kg; fraction unbound [23]: 0.004; Activity [24]: 50%; fCmax [25]: 2 nM; half-life [26]: 2.6 h; AUC(0-inf) [13]: 2.49 µM·h; bioavailability [14]: 61%; inhibition [27]: Active
7.52,1.4,62,6.44,3.8,< 4.52,0.4,430000,NCc1ccc(-n2cc(-c3ccc4cc[nH]c4c3)c(C(F)(F)F)n2)cc1,5.40,

# Reference: ChEMBL document CHEMBL4622882, “Discovery of a novel indole pharmacophore for the irreversible inhibition of myeloperoxidase (MPO)” (Bioorg Med Chem, 2020)
